Read-outs that look alike come from different tables or passages of the source. Starred links: 1 amine or outer side, 2 acyl side, 3 side chain; linkers in the order of their positions; H or OH if unused. Positions of bridges follow the written chain, without caps; N, C: chain ends. Non-standard residues stand in square brackets, D forms with d. Residues, ends and D or L forms follow the SMILES beside them. Groups on a side chain read outwards from the residue. *: point of attachment. X2 = C[N+](C)(CCNC(=O)CCCCCCCCCCCCCCCCC(=O)O)CC(=O)NCC[N+](C)(C)CC(=O)*; X1 = C[N+](C)(CCNC(=O)CCCCCCCCCCCCCCCCC(=O)O)CC(=O)*; X5 = CCCCCCCCCCCCCCCC(=O)NCC[N+](C)(C)CC(=O)*; C18 diacid = O=C(O)CCCCCCCCCCCCCCCCC(=O)*; Dip = N[C@H](C(=O)O)C(c1ccccc1)c1ccccc1; γGlu = O=C(O)[C@H](CCC(=O)[*:2])N[*:1]; Pro(3S-OH) = O=C(O)[C@H]1NCC[C@@H]1O; Pro(3R-OH) = O=C(O)[C@H]1NCC[C@H]1O; Palmitoyl = CCCCCCCCCCCCCCCC(=O)*; NMeF = CN[C@@H](Cc1ccccc1)C(=O)O; NMeT = CN[C@H](C(=O)O)[C@@H](C)O; β3hF = N[C@H](CC(=O)O)Cc1ccccc1; NMeK = CN[C@@H](CCCCN)C(=O)O; Pen = CC(C)(S)[C@H](N)C(=O)O; dNMeK = CN[C@H](CCCCN)C(=O)O; Isovaleryl = CC(C)CC(=O)*; hCys = N[C@@H](CCS)C(=O)O; dDap = NC[C@@H](N)C(=O)O; Dap = NC[C@H](N)C(=O)O; AEEA = NCCOCCOCC(=O)O; Ahx = NCCCCCC(=O)O
Legend:
[1] = target: T1, ferroportin (Homo sapiens, UniProt Q9NP59); assay: T47D cell-based ferroportin internalization assay in presence of mouse serum albumin (MSA); set-up: a human breast carcinoma adherent cell line which endogenously expresses ferroportin; host or cells: T47D; conditions: Table 6E
T1 sequence (Q9NP59 1-571): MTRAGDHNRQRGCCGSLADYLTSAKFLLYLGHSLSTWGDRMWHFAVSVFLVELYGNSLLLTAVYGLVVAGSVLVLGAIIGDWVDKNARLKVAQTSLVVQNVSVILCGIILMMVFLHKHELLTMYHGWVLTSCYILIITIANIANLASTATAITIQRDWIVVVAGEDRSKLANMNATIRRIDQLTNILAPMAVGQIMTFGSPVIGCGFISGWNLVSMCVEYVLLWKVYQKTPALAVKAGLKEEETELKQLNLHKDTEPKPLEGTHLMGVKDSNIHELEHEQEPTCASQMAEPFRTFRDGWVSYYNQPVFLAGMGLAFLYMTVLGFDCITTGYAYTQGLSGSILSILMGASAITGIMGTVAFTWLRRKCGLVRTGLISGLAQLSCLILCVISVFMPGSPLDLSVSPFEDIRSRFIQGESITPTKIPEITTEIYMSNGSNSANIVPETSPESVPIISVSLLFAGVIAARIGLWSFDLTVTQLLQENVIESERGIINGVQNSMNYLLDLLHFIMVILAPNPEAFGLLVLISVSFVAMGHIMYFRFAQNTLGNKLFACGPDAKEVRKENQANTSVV
Procedure: The potency of the peptides in causing ferroportin internalization was evaluated in a T47D cell-based assay. […] In this internalization assay, the potency of the test peptides was evaluated in presence of serum albumin which is the main protein component in the blood. T47D cells were maintained in RPMI media (containing required amount of fetal bovine serum) and regularly sub-cultured. In preparation for the assay, the cells were seeded in 96-well plates at a density of 80-100 k cells per well in 100 ul volume and allowed to rest overnight. […] Sigma, A3139). The test peptide dilution series were allowed to incubate at room temperature for 30 min. Then the media was aspirated from the 96-well cell plate and test peptide dilution series were added. […] The AF647-conjugated detection peptide was previously verified to bind to ferroportin and cause its internalization. The cells were washed again after a 2 hr incubation in preparation for flow cytometry analysis. The Median Fluorescence Intensity (MFI) of the AF647-positive population was measured (after removing dead cells and non-singlets from the analysis). The MFI values were used to generate a dose-response curve and obtain IC50 potencies for the test peptides.

[2] = target: T1, ferroportin; assay: FPN activity assay: ferroportin-GFP internalization/degradation in HEK293 cells; type: cell-based; set-up: expressed in transfected cells; conditions: read-out: FPN IC50
Procedure: Following internalization, the ferroporin protein is degraded.
A retro inverse peptide is a peptide with a reversed sequence in all D amino acids. An example is that Hy-Glu-Thr-His-NH2 becomes Hy-DHis-DThr-DGlu-NH2. The EC50 of these reference compounds for ferroportin internalization/degradation was determined according to the FPN activity assay described above. These peptides served as control standards.

[3] = T47D internalization assay with MSA
[4] = ferroportin-GFP HEK293 cells, at least 18 hours
[5] = ferroportin-GFP internalization/degradation, HEK293 cells, Table 6E

CCCCCCCCCCCCCCCC(=O)N[C@@H](CCC(=O)NCCCC[C@@H](C(=O)N[C@H](CC(=O)N[C@H](CCCCN)C(N)=O)Cc1ccccc1)N(C)C(=O)[C@@H]1CSSC[C@H](NC(=O)[C@@H]2CCCN2C(=O)[C@@H](NC(=O)[C@H](Cc2cnc[nH]2)NC(=O)[C@@H](NC(=O)[C@H](CCC(=O)O)NC(=O)CC(C)C)[C@@H](C)O)C(c2ccccc2)c2ccccc2)C(=O)N1)C(=O)O [compound 223] (Isovaleryl-ETH[Dip]PCC[NMeK]([γGlu-Palmitoyl])[β3hF][dK]-NH2; disulfide 6-7)
IC50 [1, 3]: 1 to 10 nM

CCCCCCCCCCCCCCCC(=O)NCCCCCC(=O)NCCCC[C@@H](C(=O)N[C@H](C(=O)N[C@H](CN)C(N)=O)C(c1ccccc1)c1ccccc1)N(C)C(=O)[C@@H]1CSSC[C@H](NC(=O)[C@@H]2CCCN2C(=O)[C@@H](NC(=O)[C@H](Cc2cnc[nH]2)NC(=O)[C@@H](NC(=O)[C@H](CCC(=O)O)NC(=O)CC(C)C)[C@@H](C)O)C(c2ccccc2)c2ccccc2)C(=O)N1 [compound 165] (Isovaleryl-ETH[Dip]PCC[NMeK]([Ahx-Palmitoyl])[Dip][dDap]-NH2; disulfide 6-7)
IC50 [1, 3]: 1 to 10 nM

CC(C)CC(=O)N[C@@H](CCC(=O)O)C(=O)N1CC[C@H](O)[C@H]1C(=O)N[C@@H](Cc1c[nH]cn1)C(=O)N[C@H](C(=O)N1CCC[C@H]1C(=O)N[C@H]1CSSC[C@@H](C(=O)N(C)[C@@H](CCCCNC(=O)COCCOCCNC(=O)COCCOCCNC(=O)[C@H](CN)NC(=O)CCCCCCCCCCCCCCCCC(=O)O)C(=O)N[C@H](CC(=O)N[C@H](CCCCN)C(N)=O)Cc2ccccc2)NC1=O)C(c1ccccc1)c1ccccc1 [compound 253] (Isovaleryl-E[Pro(3S-OH)]H[Dip]PCC[NMeK]([AEEA-AEEA-Dap-C18 diacid])[β3hF][dK]-NH2; disulfide 6-7)
IC50 ([1]; T47D internalization assay in presence of mouse serum albumin (MSA)): 10 to 100 nM

CC(C)CC(=O)N[C@@H](CCC(=O)O)C(=O)N1CC[C@@H](O)[C@H]1C(=O)N[C@@H](Cc1c[nH]cn1)C(=O)N[C@H](C(=O)N1CCC[C@H]1C(=O)N[C@H]1CSSC[C@@H](C(=O)N(C)[C@@H](CCCCNC(=O)CCCCCNC(=O)C[N+](C)(C)CCNC(=O)CCCCCCCCCCCCCCCCC(=O)O)C(=O)N[C@H](C(N)=O)C(c2ccccc2)c2ccccc2)NC1=O)C(c1ccccc1)c1ccccc1 [compound 154] (Isovaleryl-E[Pro(3R-OH)]H[Dip]PCC[NMeK]([Ahx-X1])[Dip]-NH2; disulfide 6-7)
IC50 [1, 3]: 10 to 100 nM

COC(=O)CC[C@H](NC(=O)CC(C)C)C(=O)N[C@H](C(=O)N[C@@H](Cc1c[nH]cn1)C(=O)N[C@H](C(=O)N1CCC[C@H]1C(=O)N[C@H]1CSSC[C@@H](C(=O)N[C@@H](CCCCNC(=O)C[N+](C)(C)CCNC(=O)C[N+](C)(C)CCNC(=O)CCCCCCCCCCCCCCCCC(=O)O)C(=O)N[C@H](C(=O)N[C@H](CCCCN)C(N)=O)C(c2ccccc2)c2ccccc2)NC1=O)C(c1ccccc1)c1ccccc1)[C@@H](C)O [compound 209] (Isovaleryl-E(OMe)TH[Dip]PCCK(X2)[Dip][dK]-NH2; disulfide 6-7)
IC50 [1, 3]: 10 to 100 nM

CCCCCCCCCCCCCCCC(=O)NCC[N+](C)(C)CC(=O)NCCCCCC(=O)NCCCC[C@@H](C(=O)N[C@H](C(=O)N[C@H](CCCCN)C(N)=O)C(c1ccccc1)c1ccccc1)N(C)C(=O)[C@@H]1CSSC[C@H](NC(=O)[C@@H]2CCCN2C(=O)[C@@H](NC(=O)[C@H](Cc2cnc[nH]2)NC(=O)[C@H]([C@@H](C)O)N(C)C(=O)[C@H](CCC(=O)O)NC(=O)CC(C)C)C(c2ccccc2)c2ccccc2)C(=O)N1 [compound 170] (Isovaleryl-E[NMeT]H[Dip]PCC[NMeK]([Ahx-X5])[Dip][dK]-NH2; disulfide 6-7)
IC50 [1, 3]: 1 to 10 nM

COC(=O)CC[C@H](NC(=O)CC(C)C)C(=O)N(C)[C@H](C(=O)N[C@@H](Cc1c[nH]cn1)C(=O)N[C@H](C(=O)N1CCC[C@H]1C(=O)N[C@H]1CSSC[C@@H](C(=O)N(C)[C@@H](CCCCNC(=O)C[N+](C)(C)CCNC(=O)CCCCCCCCCCCCCCCCC(=O)O)C(=O)N(C)[C@@H](Cc2ccccc2)C(N)=O)NC1=O)C(c1ccccc1)c1ccccc1)[C@@H](C)O [compound 185] (Isovaleryl-E(OMe)[NMeT]H[Dip]PCC[NMeK](X1)[NMeF]-NH2; disulfide 6-7)
DC50 ([2]; Table 6E, ferroportin-GFP internalization/degradation, at least 18 hours incubation): > 500 nM

CCCCCCCCCCCCCCCC(=O)NCCCCCC(=O)NCCCC[C@H](NC(=O)[C@@H](NC(=O)[C@@H]1CSSC[C@H](NC(C)=O)C(=O)N[C@@H](CCC(=O)O)C(=O)N[C@@H]([C@@H](C)O)C(=O)N[C@@H](Cc2c[nH]cn2)C(=O)N[C@@H](C(c2ccccc2)c2ccccc2)C(=O)N2CCC[C@H]2C(=O)N1)[C@@H](C)CC)C(=O)N[C@H](CC(N)=O)Cc1ccccc1 [Compd 9] (Ac-CETH[Dip]PCIK([Ahx-Palmitoyl])[β3hF]-NH2; disulfide 1-7)
DC50 [2, 4]: 100 to 500 nM

CC[C@H](C)[C@H](NC(=O)[C@@H]1CSSC[C@H](NC(=O)[C@H](Cc2c[nH]cn2)NC(=O)[C@@H](NC(=O)[C@H](CCC(=O)O)NC(=O)CC(C)C)[C@@H](C)O)C(=O)N2CCC[C@H]2C(=O)N1)C(=O)N[C@@H](CCCCNC(=O)COCCOCCNC(=O)COCCOCCNC(=O)CC[C@H](NC(=O)CCCCCCCCCCCCCCCCC(=O)O)C(=O)O)C(=O)N[C@H](CC(=O)N[C@H](CCCCN)C(N)=O)Cc1ccccc1 [Compd 29] (Isovaleryl-ETHCPCIK([AEEA-AEEA-γGlu-C18 diacid])[β3hF][dK]-NH2; disulfide 4-6)
DC50 [2, 4]: 100 to 500 nM

CCCCCCCCCCCCCCCC(=O)NCC[N+](C)(C)CC(=O)NCCCC[C@H](NC(=O)[C@@H]1CSSC[C@H](NC(=O)[C@H](CCC(=O)OC)NC(=O)CC(C)C)C(=O)N[C@@H](Cc2c[nH]cn2)C(=O)N[C@@H](C(c2ccccc2)c2ccccc2)C(=O)N1)C(=O)NCCCCC [compound 123]
DC50 ([2]; Table 6D, ferroportin-GFP internalization/degradation, at least 18 hours incubation): > 500 nM

CCCCCCCCCCCCCCCC(=O)NCCCCCC(=O)NCCCC[C@H](NC(=O)C[C@H](Cc1ccccc1)NC(=O)[C@@H]1CCSSC[C@H](NC(=O)CC(C)C)C(=O)N[C@@H]([C@@H](C)O)C(=O)N[C@@H](Cc2c[nH]cn2)C(=O)N[C@@H](C(c2ccccc2)c2ccccc2)C(=O)N2CCC[C@H]2C(=O)N[C@@H](C)C(=O)N[C@@H]([C@@H](C)CC)C(=O)N1)C(=O)N[C@H](CCCCN)C(N)=O [compound 108] (Isovaleryl-CTH[Dip]PAI[hCys][β3hF]K([Ahx-Palmitoyl])[dK]-NH2; disulfide 1-8)
DC50 [2, 4]: 10 to 100 nM

CC(=O)NCCCC[C@H](C(N)=O)N(C)C(=O)C[C@H](Cc1ccccc1)NC(=O)[C@H](CCCCNC(=O)COCCOCCNC(=O)COCCOCCNC(=O)[C@H](CN)NC(=O)CCCCCCCCCCCCCCCCC(=O)O)N(C)C(=O)[C@@H]1CSSC[C@H](NC(=O)[C@@H]2CCCN2C(=O)[C@@H](NC(=O)[C@H](Cc2c[nH]cn2)NC(=O)[C@@H](NC(=O)[C@H](CCC(=O)O)NC(=O)CC(C)C)[C@@H](C)O)C(c2ccccc2)c2ccccc2)C(=O)N1 [compound 267] (Isovaleryl-ETH[Dip]PCC[NMeK]([AEEA-AEEA-Dap-C18 diacid])[β3hF][dNMeK](Ac)-NH2; disulfide 6-7)
DC50 [2, 5]: 100 to 500 nM

CCCCCCCCCCCCCCCC(=O)NCCCCCC(=O)NCCCC[C@H](NC(=O)C[C@H](Cc1ccccc1)NC(=O)[C@@H](CCCCN)NC(=O)[C@@H]1CSSC[C@H](NC(=O)[C@@H]2CCCN2C(=O)[C@@H](NC(=O)[C@H](Cc2c[nH]cn2)NC(=O)[C@@H](NC(=O)[C@H](CCC(=O)O)NC(=O)CC(C)C)[C@@H](C)O)C(c2ccccc2)c2ccccc2)C(=O)N1)C(=O)N[C@H](CCCCN)C(N)=O [Compd 6] (Isovaleryl-ETH[Dip]PCC[dK][β3hF]K([Ahx-Palmitoyl])[dK]-NH2; disulfide 6-7)
DC50 [2, 4]: 10 to 100 nM

CC(C)CC(=O)N[C@@H](CCC(=O)O)C(=O)N[C@H](C(=O)N[C@@H](Cc1c[nH]cn1)C(=O)N[C@H](C(=O)N1CCC[C@H]1C(=O)N[C@@H]1C(=O)N[C@H](C(=O)N(C)[C@@H](CCCCNC(=O)COCCOCCNC(=O)COCCOCCNC(=O)[C@H](CN)NC(=O)CCCCCCCCCCCCCCCCC(=O)O)C(=O)N[C@H](CC(=O)N[C@H](CCCCN)C(N)=O)Cc2ccccc2)C(C)(C)SSC1(C)C)C(c1ccccc1)c1ccccc1)[C@@H](C)O [compound 273] (Isovaleryl-ETH[Dip]P[Pen][Pen][NMeK]([AEEA-AEEA-Dap-C18 diacid])[β3hF][dK]-NH2; disulfide 6-7)
DC50 [2, 5]: 100 to 500 nM

— patent publication US20250277012A1 (Protagonist Therapeutics, Inc., priority 2021, published 2025)
